Test results reported in paper PMC11435058, “Synthesis of New Thiazole-Privileged Chalcones as Tubulin Polymerization Inhibitors with Potential Anticancer Activities” (Pharmaceuticals, 2024).

Key:
SR = experiment: NCI-60 anticancer screen (SRB; single dose and five doses); settings: Homo sapiens, 48 h, read-out: Growth Percentage
OVCAR-8 = experiment: as above; settings: Homo sapiens, OVCAR-8, 48 h, read-out: Growth Percentage
OVCAR-5 = experiment: as above; settings: Homo sapiens, OVCAR-5, 48 h, read-out: Growth Percentage
HCC-2998 = experiment: as above; settings: Homo sapiens, HCC 2998, 48 h, read-out: Growth Percentage
UO-31 = experiment: as above; settings: Homo sapiens, UO-31, 48 h, read-out: Growth Percentage
DU-145 = experiment: as above; settings: Homo sapiens, DU-145, 48 h, read-out: Growth Percentage
HOP-62 = experiment: as above; settings: Homo sapiens, HOP-62, 48 h, read-out: Growth Percentage
NCI-H23 = experiment: as above; settings: Homo sapiens, NCI-H23, 48 h, read-out: Growth Percentage
KM12 = experiment: as above; settings: Homo sapiens, KM12, 48 h, read-out: Growth Percentage
SNB-19 = experiment: cells; settings: Homo sapiens, SNB-19, 48 h, read-out: Growth Percentage
SF-539 = experiment: NCI-60 anticancer screen (SRB; single dose and five doses); settings: Homo sapiens, SF-539, 48 h, read-out: Growth Percentage
MCF7 = experiment: as above; settings: Homo sapiens, MCF7, 48 h, read-out: Growth Percentage
CCRF-CEM = experiment: NCI-60 anticancer screen (SRB; single dose 10 μM and five doses); settings: Homo sapiens, 48 h, read-out: Growth Percentage
RPMI-8226 = experiment: NCI-60 anticancer screen (SRB; single dose and five doses); settings: Homo sapiens, RPMI-8226, 48 h, read-out: Growth Percentage
CAKI-1 = experiment: as above; settings: Homo sapiens, CAKI-1, 48 h, read-out: Growth Percentage
OVCAR-4 = experiment: as above; settings: Homo sapiens, OVCAR-4, 48 h, read-out: Growth Percentage
EKVX = experiment: as above; settings: Homo sapiens, 48 h, read-out: Growth Percentage
SK-MEL-5 = experiment: as above; settings: Homo sapiens, SK-MEL-5, 48 h, read-out: Growth Percentage
HT29 = experiment: as above; settings: Homo sapiens, HT-29, 48 h, read-out: Growth Percentage
SK-OV-3 = experiment: as above; settings: Homo sapiens, SK-OV-3, 48 h, read-out: Growth Percentage
MDA-MB-231/ATCC = experiment: as above; settings: Homo sapiens, MDA-MB-231, 48 h, read-out: Growth Percentage
TK-10 = experiment: as above; settings: Homo sapiens, TK-10, 48 h, read-out: Growth Percentage
IGROV1 = experiment: as above; settings: Homo sapiens, IGROV-1, 48 h, read-out: Growth Percentage
HCT-116 = experiment: as above; settings: Homo sapiens, HCT-116, 48 h, read-out: Growth Percentage
NCI/ADR-RES = experiment: as above; settings: Homo sapiens, 48 h, read-out: Growth Percentage
SF-295 = experiment: as above; settings: Homo sapiens, SF-295, 48 h, read-out: Growth Percentage
HS 578T = experiment: as above; settings: Homo sapiens, 48 h, read-out: Growth Percentage
MDA-MB-435 = experiment: as above; settings: Homo sapiens, MDA-MB-435, 48 h, read-out: Growth Percentage
LOX IMVI = experiment: as above; settings: Homo sapiens, 48 h, read-out: Growth Percentage

Work on `COc1ccc(/C=C/C(=O)c2sc(=S)[nH]c2C)cc1OC` [2o, (E)-3-(3,4-Dimethoxyphenyl)-1-(4-Methyl-2-Thioxo-2,3-Dihydrothiazol-5-yl)Prop-2-En-1-One] yielded an activity at 10 µM (SR) of 32.5%, an activity at 10 µM (OVCAR-8) of 34.3% and an activity at 10 µM (OVCAR-5) of 131%. The activity at 10 µM (HCC-2998) was 41.7%, the activity at 10 µM (UO-31) was 49.2% and the activity at 10 µM (DU-145) was 48.1%. For the same compound, the activity at 10 µM (HOP-62) was 34.1%, the activity at 10 µM (NCI-H23) was 65.1% and the activity at 10 µM (KM12) was 42.2%. For the same compound, the activity at 10 µM (SNB-19) was 61.9%, the activity at 10 µM (SF-539) was 29.8% and the activity at 10 µM (MCF7) was 28.9%. It also gave an activity at 10 µM (CCRF-CEM) of 15.5%, an activity at 10 µM (RPMI-8226) of 18.6% and an activity at 10 µM (CAKI-1) of 42%. For the same compound, the activity at 10 µM (OVCAR-4) was 47.6%, the activity at 10 µM (EKVX) was 54.2% and the activity at 10 µM (SK-MEL-5) was 63.1%. For the same compound, the activity at 10 µM (HT29) was 97.7%, the activity at 10 µM (SK-OV-3) was 76.9% and the activity at 10 µM (MDA-MB-231/ATCC) was 58.4%. It also gave an activity at 10 µM (TK-10) of 75.4%, an activity at 10 µM (IGROV1) of 69.5% and an activity at 10 µM (HCT-116) of 34.5%. It also gave an activity at 10 µM (NCI/ADR-RES) of 26.9%, an activity at 10 µM (SF-295) of 66.5% and an activity at 10 µM (HS 578T) of 84.7%. The activity at 10 µM (MDA-MB-435) was 38.9% and the activity at 10 µM (LOX IMVI) was 26.9%.
